In patent US20100093536A1, “CONTROL OF GRASSY WEEDS WITH VINYLGLYCINES AND VINYLGLYCINE-PRODUCING ORGANISMS” (THE STATE OF OREGON ACTING BY AND THROUGH THE STATE BOARD …, priority 2008, published 2010):

Test system: Poa annua (annual bluegrass) seeds
Assay: Standard GAF Bioassay System (Standard Poa Bioassay), seed germination scored after 7 days
Format: in vivo
Design: key to GERMINATION SCORE IN THE POA BIOASSAY (±Standard Error of the Mean) / GERMINATION SCORE (±Standard Error of the Mean): germination score, 0 = no germination to 4.0 = first true leaf emerged
Conditions: for reversal of the effects of GAF by amino acids, in words: in presence of WH6 culture filtrate; for toxicity of trace metal in the Poa bioassay, in words: higher concentrations tested (up to 200 μM)
Description: The seed of Poa annua (or other test seeds) were surface-sterilized by placing two to five grams of seeds in a 50 ml glass beaker, covering the seeds with a 50% (v/v) solution of H2SO4, and stirring vigorously for 5 minutes. The seed/acid mixture was filtered through a Gooch crucible and repeatedly rinsed with tap water to remove residual acid. The seeds were then placed in a beaker and covered with bleach (Clorox®, NaOCl, 5.25%) containing 1% (v/v) polyoxethylene sorbitan monolaurate (Tween®-20). The seeds were stirred for 5 minutes and then repeatedly rinsed with sterile deionized water and placed in a sterile Petri dish. The seeds were used immediately while wet or dried (spread in a thin layer and allowed to dry under a laminar flow hood with the Petri dish lid ajar for 4 to 8 hours) to prevent premature germination.
Bioassays for GAF activity were performed with Poa annua (annual bluegrass) seeds unless otherwise indicated. For each concentration of each test solution, 200 μl aliquots of solution were distributed to each of three wells of a sterile Costar® forty-eight well tissue culture plate (Corning® Costar® Number 3548). Three surface-sterilized Poa annua seeds were aseptically transferred to each well and submerged in the liquid, providing a total of nine observations for each concentration of each solution tested. The lid of the tissue culture plate was sealed with Parafilm® and the plate was placed in a germinator at 20° C. (8 hour day length at a light intensity of 50 μmol/m^2/s, 16 hour dark period) for seven days. Germination was scored on the basis of the following four-point system: • Score 0: No visible signs of germination. • Score 0.5: Seed coat split but plumule and coleorhiza are not visible. • Score 1.0: Plumule and coleorhiza visible. Plumule chlorotic and shorter than length of seed. Root not yet visible. • Score 1.5: Plumule still shorter than length of seed, but root is clearly visible. • Score 2.0: Plumule approximately equal in length to the seed. Root elongated. • Score 2.5: Plumule obviously longer than length of seed. First true leaf still enclosed in coleoptile. • Score 3.0: First true leaf emerged from coleoptile and green. Emerged portion of the leaf is obviously shorter than the coleoptile. • Score 3.5: First true leaf emerged from coleoptile and green. Emerged portion of the leaf is approximately equal in length to the coleoptile. • Score 4.0: First true leaf emerged from coleoptile and green. Emerged portion of the leaf is obviously longer than the coleoptile.

[1] = WH6 culture filtrate 0, amino acid 0.3 mM
[2] = WH6 culture filtrate 0, amino acid 1 mM
[3] = WH6 culture filtrate 0, amino acid 3 mM
[4] = WH6 culture filtrate 0, amino acid 10 mM
[5] = WH6 culture filtrate 0, amino acid 30 mM
[6] = WH6 culture filtrate 0.1X plus amino acid 0.3 mM
[7] = WH6 culture filtrate 0.1X plus amino acid 1 mM
[8] = WH6 culture filtrate 0.1X plus amino acid 3 mM
[9] = WH6 culture filtrate 0.1X plus amino acid 10 mM
[10] = WH6 culture filtrate 0.1X plus amino acid 30 mM
[11] = GAF Conc. 0, metal 12.5 μM, score 4.0 = normal germination, 1.0 = arrest
[12] = GAF Conc. 2X plus metal 12.5 μM

Row | SMILES | POA BIOASSAY SCORES (±Standard Error of the Mean) [11] | POA BIOASSAY SCORES (±Standard Error of the Mean) (GAF Conc. 0, metal 25 μM) | POA BIOASSAY SCORES (±Standard Error of the Mean) (GAF Conc. 0, metal 50 μM) | POA BIOASSAY SCORES (±Standard Error of the Mean) (GAF Conc. 0, metal 100 μM) | POA BIOASSAY SCORES (±Standard Error of the Mean) (GAF Conc. 0, metal 200 μM) | POA BIOASSAY SCORES (±Standard Error of the Mean) [12] | POA BIOASSAY SCORES (±Standard Error of the Mean) (GAF Conc. 2X plus metal 25 μM) | POA BIOASSAY SCORES (±Standard Error of the Mean) (GAF Conc. 2X plus metal 50 μM) | POA BIOASSAY SCORES (±Standard Error of the Mean) (GAF Conc. 2X plus metal 100 μM) | POA BIOASSAY SCORES (±Standard Error of the Mean) (GAF Conc. 2X plus metal 200 μM) | also measured
1 | C[C@H](N)C(=O)O [Alanine] | – | – | – | – | – | – | – | – | – | – | GERMINATION SCORE (±Standard Error of the Mean) [1]: 4.0 ± 0.0; GERMINATION SCORE (±Standard Error of the Mean) [2]: 3.9 ± 0.1; GERMINATION SCORE (±Standard Error of the Mean) [3]: 4.0 ± 0.0; GERMINATION SCORE (±Standard Error of the Mean) [4]: 3.9 ± 0.1; GERMINATION SCORE (±Standard Error of the Mean) [5]: 3.2 ± 0.1; GERMINATION SCORE (±Standard Error of the Mean) [6]: 1.9 ± 0.1; GERMINATION SCORE (±Standard Error of the Mean) [7]: 3.3 ± 0.1; GERMINATION SCORE (±Standard Error of the Mean) [8]: 4.0 ± 0.0; GERMINATION SCORE (±Standard Error of the Mean) [9]: 4.0 ± 0.0; GERMINATION SCORE (±Standard Error of the Mean) [10]: 4.0 ± 0.0; reversal of the effects of GAF by amino acids, in words: most effective
2 | [Ca+2].[Cl-].[Cl-] [CaCl2] | 4.00 ± 0.00 | 4.00 ± 0.00 | 4.00 ± 0.00 | 4.00 ± 0.00 | 4.00 ± 0.00 | 1.00 ± 0.00 | 1.00 ± 0.00 | 1.00 ± 0.00 | 1.00 ± 0.00 | 1.00 ± 0.00 | –
3 | [Cu] [Copper] | – | – | – | – | – | – | – | – | – | – | toxicity of trace metal in the Poa bioassay, in words: completely inhibiting germination
4 | [Cl][Cu][Cl] [CuCl2] | 3.3 ± 0.17 | 2.9 ± 0.04 | 1.2 ± 0.27 | 0.30 ± 0.28 | 0.00 ± 0.00 | 1.00 ± 0.00 | 2.58 ± 0.06 | 3.94 ± 0.06 | 2.97 ± 0.03 | 2.69 ± 0.09 | –
5 | O=S(=O)([O-])[O-].[Cu+2] [CuSO4] | 3.5 ± 0.00 | 3.00 ± 0.00 | 1.11 ± 0.11 | 0.00 ± 0.00 | 0.00 ± 0.00 | 1.00 ± 0.00 | 1.00 ± 0.00 | 1.00 ± 0.00 | 3.00 ± 0.00 | 0.00 ± 0.00 | –
6 | O=S(=O)([O-])[O-].[Fe+2] [FeSO4] | 4.00 ± 0.00 | 3.50 ± 0.13 | 3.00 ± 0.00 | 2.86 ± 0.44 | 2.47 ± 0.07 | 1.00 ± 0.00 | 1.00 ± 0.00 | 1.00 ± 0.00 | 1.00 ± 0.00 | 1.00 ± 0.00 | –
7 | NC(=O)CC[C@H](N)C(=O)O [Glutamine] | – | – | – | – | – | – | – | – | – | – | GERMINATION SCORE (±Standard Error of the Mean) [1]: 4.0 ± 0.0; GERMINATION SCORE (±Standard Error of the Mean) [2]: 4.0 ± 0.0; GERMINATION SCORE (±Standard Error of the Mean) [3]: 3.7 ± 0.3; GERMINATION SCORE (±Standard Error of the Mean) [4]: 3.7 ± 0.3; GERMINATION SCORE (±Standard Error of the Mean) [5]: 4.0 ± 0.0; GERMINATION SCORE (±Standard Error of the Mean) [6]: 1.4 ± 0.1; GERMINATION SCORE (±Standard Error of the Mean) [7]: 1.8 ± 0.2; GERMINATION SCORE (±Standard Error of the Mean) [8]: 3.5 ± 0.3; GERMINATION SCORE (±Standard Error of the Mean) [9]: 4.0 ± 0.0; GERMINATION SCORE (±Standard Error of the Mean) [10]: 4.0 ± 0.0; reversal of the effects of GAF by amino acids, in words: most effective
8 | [Fe] [Iron] | – | – | – | – | – | – | – | – | – | – | toxicity of trace metal in the Poa bioassay, in words: slight toxicity
9 | CC(C)C[C@H](N)C(=O)O [Leucine] | – | – | – | – | – | – | – | – | – | – | GERMINATION SCORE (±Standard Error of the Mean) [1]: 3.9 ± 0.2; GERMINATION SCORE (±Standard Error of the Mean) [2]: 4.0 ± 0.0; GERMINATION SCORE (±Standard Error of the Mean) [3]: 3.6 ± 0.2; GERMINATION SCORE (±Standard Error of the Mean) [4]: 3.0 ± 0.0; GERMINATION SCORE (±Standard Error of the Mean) [5]: 1.7 ± 0.1; GERMINATION SCORE (±Standard Error of the Mean) [6]: 1.5 ± 0.0; GERMINATION SCORE (±Standard Error of the Mean) [7]: 1.5 ± 0.3; GERMINATION SCORE (±Standard Error of the Mean) [8]: 3.6 ± 0.1; GERMINATION SCORE (±Standard Error of the Mean) [9]: 3.4 ± 0.1; GERMINATION SCORE (±Standard Error of the Mean) [10]: 2.8 ± 0.1
10 | [Cl][Ni][Cl] [NiCl2] | 2.78 ± 0.05 | 2.47 ± 0.10 | 1.78 ± 0.09 | 1.44 ± 0.06 | 1.00 ± 0.00 | 1.00 ± 0.00 | 1.00 ± 0.00 | 1.00 ± 0.00 | 1.00 ± 0.00 | 1.00 ± 0.00 | –
11 | [Cl-].[Cl-].[Zn+2] [ZnCl2] | 4.00 ± 0.00 | 4.00 ± 0.00 | 4.00 ± 0.00 | 3.5 ± 0.00 | 3.00 ± 0.00 | 1.00 ± 0.00 | 1.00 ± 0.00 | 1.00 ± 0.00 | 1.00 ± 0.00 | 1.00 ± 0.00 | –
